# Reference: ChEMBL document CHEMBL1201862, “PubChem BioAssay data set” (2004)
#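 Exposure lasted 48 hours, with cells grown in 96-well plates and compounds tested at five concentrations. GI50 is the concentration that inhibits growth by half.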 Active and inactive are the calls of the source. No stated cut-off is given here; in the data, active = GI50 up to about 1.1 µM and inactive = higher.
# How the values were obtained:
# Test in all cases: inhibition of tumour cell growth, NCI panel, 48 h
# [1] = system: HOP-62
# [2] = system: SNB-75
# [3] = system: SN12C
# [4] = system: RXF 393
# [5] = system: OVCAR-3
# [6] = system: OVCAR-4
# [7] = system: NCI-H460
# [8] = system: HCT-15
# [9] = system: CAKI-1
# [10] = system: HL-60
# [11] = system: EKVX
# [12] = system: XF498
# [13] = system: SK-MEL-28
# [14] = system: OVCAR-8
# [15] = system: HT-29
# [16] = system: UACC-62
# [17] = system: COLO 205
# [18] = system: A498
# [19] = system: SF-539
# [20] = system: SW-620
# [21] = system: HCT-116
# [22] = system: DLD-1
# [23] = system: HOP-92
# [24] = system: MOLT-4
# [25] = system: RPMI-8226
# [26] = system: M14
# [27] = system: SK-MEL-5
# [28] = system: SF-268
# [29] = system: SNB-78
# [30] = system: SF-295
# [31] = system: LXFL 529
# [32] = system: NCI-H522
# [33] = system: NCI-H226
# [34] = system: DMS-114
# [35] = system: M19-MEL
# [36] = system: 786-0
# [37] = system: TK-10
# [38] = system: DMS-273
# [39] = system: ACHN
# [40] = system: K562
# [41] = system: UO-31
# [42] = system: SNB-19
# [43] = system: Malme-3M
# [44] = system: KM12
# [45] = system: HCC 2998
# [46] = system: NCI-H23
# [47] = system: SK-OV-3
# [48] = system: A549
# [49] = system: KM-20L2
# [50] = system: UACC-257
# [51] = system: LOX IMVI
# [52] = system: IGROV-1
# [53] = system: SR
# [54] = system: U-251
# [55] = system: HOP-18
# [56] = system: CCRF-CEM
# [57] = system: SK-MEL-2
# [58] = system: RXF 631
# [59] = system: OVCAR-5
smiles,measurement,setting,value
CNC(=S)/N=C(\N)N(C)C,GI50,[1],> 100 µM (inactive)
same,GI50,[2],> 100 µM (inactive)
same,GI50,[3],> 100 µM (inactive)
same,GI50,[4],> 100 µM (inactive)
same,GI50,[5],> 100 µM (inactive)
same,GI50,[6],> 10 µM (inactive)
same,GI50,[7],> 100 µM (inactive)
same,GI50,[8],> 100 µM
same,GI50,[9],> 100 µM (inactive)
same,GI50,[10],> 100 µM (inactive)
same,GI50,[11],> 100 µM (inactive)
same,GI50,[12],> 100 µM (inactive)
same,GI50,[13],> 100 µM (inactive)
same,GI50,[14],> 100 µM (inactive)
same,GI50,[15],> 100 µM (inactive)
same,GI50,[16],> 100 µM (inactive)
same,GI50,[17],> 100 µM (inactive)
same,GI50,[18],> 100 µM (inactive)
same,GI50,[19],> 100 µM (inactive)
same,GI50,[20],> 100 µM (inactive)
same,GI50,[21],> 100 µM (inactive)
same,GI50,[22],> 100 µM (inactive)
same,GI50,[23],> 100 µM (inactive)
same,GI50,[24],> 100 µM (inactive)
same,GI50,[25],> 100 µM (inactive)
same,GI50,[26],> 100 µM (inactive)
same,GI50,[27],> 100 µM (inactive)
same,GI50,[28],> 100 µM (inactive)
same,GI50,[29],> 100 µM (inactive)
same,GI50,[30],> 100 µM (inactive)
same,GI50,[31],> 100 µM (inactive)
same,GI50,[32],> 100 µM (inactive)
same,GI50,[33],> 100 µM (inactive)
same,GI50,[34],> 100 µM (inactive)
same,GI50,[35],> 100 µM (inactive)
same,GI50,[36],> 100 µM (inactive)
same,GI50,[37],> 100 µM (inactive)
same,GI50,[38],> 100 µM (inactive)
same,GI50,[39],> 100 µM (inactive)
same,GI50,[40],> 100 µM (inactive)
same,GI50,[41],> 100 µM (inactive)
same,GI50,[42],> 100 µM (inactive)
same,GI50,[43],> 100 µM (inactive)
same,GI50,[44],> 100 µM (inactive)
same,GI50,[45],> 100 µM (inactive)
same,GI50,[46],> 10 µM (inactive)
same,GI50,[47],> 100 µM (inactive)
same,GI50,[48],> 100 µM (inactive)
same,GI50,[49],> 100 µM (inactive)
same,GI50,[50],> 10 µM (inactive)
same,GI50,[51],> 100 µM (inactive)
same,GI50,[52],> 100 µM (inactive)
same,GI50,[53],> 100 µM (inactive)
same,GI50,[54],> 100 µM (inactive)
same,GI50,[55],> 100 µM (inactive)
CC(C)C(=O)N1Cc2cc(Cl)cc(Cl)c2OC(=O)c2ccccc21,GI50,[1],31.2 µM (inactive)
same,GI50,[2],30.3 µM (inactive)
same,GI50,[3],32.7 µM (inactive)
same,GI50,[5],22 µM (inactive)
same,GI50,[6],28.8 µM (inactive)
same,GI50,[7],33 µM (inactive)
same,GI50,[8],27.5 µM
same,GI50,[9],22.8 µM (inactive)
same,GI50,[10],22.6 µM (inactive)
same,GI50,[11],27.7 µM (inactive)
same,GI50,[56],27 µM (inactive)
same,GI50,[13],42.4 µM (inactive)
same,GI50,[14],33.7 µM (inactive)
same,GI50,[15],34 µM (inactive)
same,GI50,[16],19.8 µM (inactive)
same,GI50,[17],59.3 µM (inactive)
same,GI50,[18],27.5 µM (inactive)
same,GI50,[19],18.7 µM (inactive)
same,GI50,[20],33 µM (inactive)
same,GI50,[21],38 µM (inactive)
same,GI50,[22],29.9 µM (inactive)
same,GI50,[23],24.7 µM (inactive)
same,GI50,[24],22.6 µM (inactive)
same,GI50,[25],25.5 µM (inactive)
same,GI50,[26],25.8 µM (inactive)
same,GI50,[27],19.2 µM (inactive)
same,GI50,[28],19.6 µM (inactive)
same,GI50,[29],67.9 µM (inactive)
same,GI50,[30],26.7 µM (inactive)
same,GI50,[31],18.3 µM (inactive)
same,GI50,[32],21 µM (inactive)
same,GI50,[33],23.1 µM (inactive)
same,GI50,[34],30.1 µM (inactive)
same,GI50,[36],35 µM (inactive)
same,GI50,[37],29.7 µM (inactive)
same,GI50,[38],38.7 µM (inactive)
same,GI50,[39],24.5 µM (inactive)
same,GI50,[40],51.1 µM (inactive)
same,GI50,[57],21.5 µM (inactive)
same,GI50,[41],31.7 µM (inactive)
same,GI50,[42],35.2 µM (inactive)
same,GI50,[43],20.9 µM (inactive)
same,GI50,[44],32.8 µM (inactive)
same,GI50,[45],28.4 µM (inactive)
same,GI50,[46],66.2 µM (inactive)
same,GI50,[58],40.3 µM (inactive)
same,GI50,[47],25.9 µM (inactive)
same,GI50,[59],27 µM (inactive)
same,GI50,[48],31 µM (inactive)
same,GI50,[49],23.7 µM (inactive)
same,GI50,[50],17.2 µM (inactive)
same,GI50,[51],23.3 µM (inactive)
same,GI50,[52],29.5 µM (inactive)
same,GI50,[55],25.6 µM (inactive)
C1CSC(=[N+]2CC[N+](=C3SCCS3)CC2)S1,GI50,[1],> 100 µM (inactive)
same,GI50,[2],> 100 µM (inactive)
same,GI50,[3],> 100 µM (inactive)
same,GI50,[4],> 100 µM (inactive)
same,GI50,[5],> 100 µM (inactive)
same,GI50,[6],> 100 µM (inactive)
same,GI50,[7],> 100 µM (inactive)
same,GI50,[8],> 100 µM
same,GI50,[9],> 100 µM (inactive)
same,GI50,[10],> 100 µM (inactive)
same,GI50,[11],> 100 µM (inactive)
same,GI50,[56],36.6 µM (inactive)
same,GI50,[13],> 100 µM (inactive)
same,GI50,[14],> 100 µM (inactive)
same,GI50,[15],> 100 µM (inactive)
same,GI50,[16],> 100 µM (inactive)
same,GI50,[17],> 100 µM (inactive)
same,GI50,[18],> 100 µM (inactive)
same,GI50,[19],> 100 µM (inactive)
same,GI50,[20],> 100 µM (inactive)
same,GI50,[21],> 100 µM (inactive)
same,GI50,[22],> 100 µM (inactive)
same,GI50,[23],45.4 µM (inactive)
same,GI50,[24],44.9 µM (inactive)
same,GI50,[25],> 100 µM (inactive)
same,GI50,[26],> 100 µM (inactive)
same,GI50,[27],> 100 µM (inactive)
same,GI50,[28],> 100 µM (inactive)
same,GI50,[29],> 100 µM (inactive)
same,GI50,[30],> 100 µM (inactive)
same,GI50,[31],> 100 µM (inactive)
same,GI50,[32],> 100 µM (inactive)
same,GI50,[34],> 100 µM (inactive)
same,GI50,[35],> 100 µM (inactive)
same,GI50,[36],> 100 µM (inactive)
same,GI50,[37],> 100 µM (inactive)
same,GI50,[38],> 100 µM (inactive)
same,GI50,[39],> 100 µM (inactive)
same,GI50,[40],> 100 µM (inactive)
same,GI50,[57],> 100 µM (inactive)
same,GI50,[41],> 100 µM (inactive)
same,GI50,[42],> 100 µM (inactive)
same,GI50,[43],> 100 µM (inactive)
same,GI50,[44],> 100 µM (inactive)
same,GI50,[45],> 100 µM (inactive)
same,GI50,[46],> 100 µM (inactive)
same,GI50,[58],> 100 µM (inactive)
same,GI50,[47],> 100 µM (inactive)
same,GI50,[59],> 100 µM (inactive)
same,GI50,[48],> 100 µM (inactive)
same,GI50,[49],> 100 µM (inactive)
same,GI50,[50],> 100 µM (inactive)
same,GI50,[51],39.2 µM (inactive)
same,GI50,[52],> 100 µM (inactive)
same,GI50,[53],83.8 µM (inactive)
same,GI50,[54],> 100 µM (inactive)
same,GI50,[55],> 100 µM (inactive)
